Test results published in ChEMBL document CHEMBL1155069, “Beta-ketophosphonates as beta-lactamase inhibitors: Intramolecular cooperativity between the hydrophobic subsites of a class D beta-lactamase” (Bioorg Med Chem, 2008).

What was measured:
[1] = Inhibition of Enterobacter cloacae P99 class C beta-lactamase by spectrophotometry
[2] = Inhibition of Escherichia coli OXA1 class D beta-lactamase by spectrophotometry
[3] = Inhibition of Escherichia coli TEM2 class A beta-lactamase by spectrophotometry
[4] = Inhibition of Escherichia coli OXA10 class D beta-lactamase by spectrophotometry

Row | Structure (SMILES) | Ki [1] [µM] | Ki [2] [µM] | Ki [3] [mM] | Ki [4] [mM]
1 | O=C(CP(=O)(O)OCc1ccccc1)c1nc2ccccc2s1 | 24 | 170 | 3.6 | 
2 | O=C(CP(=O)(O)Oc1ccccc1)c1ccc(-c2ccccc2)cc1 | 100 | 140 | 0.92 | 
3 | O=C(CP(=O)(O)OCc1ccccc1)c1ccc2[nH]c(=O)oc2c1 | 70 | 270 | 1.5 | 
4 | Cc1onc(-c2ccccc2Cl)c1C(=O)CP(=O)(O)OCc1ccccc1 | > 1000 | 430 | > 1 | 
5 | O=C(CP(=O)(O)OCc1ccc(-c2ccccc2)cc1)c1ccccc1 |  | 200 |  | > 1
6 | O=C(CP(=O)(O)OCc1ccccc1)c1ccccc1 [SODIUM BENZYL PHENACYLPHOSPHONATE] | 670 | 640 | 0.15 | > 1
7 | O=C(CP(=O)(O)Oc1ccccc1)c1c(F)c(F)c(F)c(F)c1F [SODIUM PHENYL PENTAFLUOROPHENACYLPHOSPHONATE] | 350 | 380 | 0.475 | > 1
8 | O=C(CP(=O)(O)Oc1ccccc1)c1ccccc1 [SODIUM PHENYL PHENACYLPHOSPHONATE] | 200 | 1050 |  | > 1

More lines, main results first:

Row | Ki [1] [µM] | Structure (SMILES) | Ki [2] [µM] | Ki [3] [mM] | Ki [4] [mM]
9 | 74 | O=C(CP(=O)(O)OCc1ccc(-c2ccccc2)cc1)c1ccc(-c2ccccc2)cc1 | 6 |  | 0.2
10 | 190 | O=C(CP(=O)(O)OCc1ccccc1)c1ccc(-c2ccccc2)cc1 | 230 | > 1 | > 1
11 | 1080 | O=P(O)(CC(O)c1ccccc1)OCc1ccccc1 (racemic) | 440 | > 1 | 
12 | 260 | O=P(O)(CC(O)c1ccc(-c2ccccc2)cc1)OCc1ccccc1 (racemic) | 300 | > 1 | 
